Reference: patent US11478457B2, “Castration-resistant prostate cancer” (priority 2015, dated 2022)

Target: T1, UDP-glucose dehydrogenase (Homo sapiens, UniProt O60701)
T1 sequence (O60701 1-494): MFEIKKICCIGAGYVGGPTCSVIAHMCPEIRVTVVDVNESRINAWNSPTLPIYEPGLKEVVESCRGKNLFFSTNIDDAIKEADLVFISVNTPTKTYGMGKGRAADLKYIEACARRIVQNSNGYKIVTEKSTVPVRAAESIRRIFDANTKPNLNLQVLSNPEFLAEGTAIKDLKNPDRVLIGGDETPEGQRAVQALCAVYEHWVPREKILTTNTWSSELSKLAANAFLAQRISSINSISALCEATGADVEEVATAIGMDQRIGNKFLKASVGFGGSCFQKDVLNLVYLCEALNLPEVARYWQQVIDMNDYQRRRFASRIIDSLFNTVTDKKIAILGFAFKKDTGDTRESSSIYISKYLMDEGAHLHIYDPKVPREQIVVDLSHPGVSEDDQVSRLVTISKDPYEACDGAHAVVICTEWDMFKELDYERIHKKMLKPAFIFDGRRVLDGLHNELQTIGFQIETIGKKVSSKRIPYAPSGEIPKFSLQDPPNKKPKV
Assay: High throughput screening for inhibitors of UDP-glucose dehydrogenase (NADH fluorescence)
Type: biochemical
Conditions: not given

| Compound | POC (Percent of Controls) |
| --- | --- |
| O=C([O-])c1ccccc1-c1c2cc(Br)c(=O)cc-2oc2[c]([Hg][OH])c([O-])c(Br)cc12.[Na+].[Na+] | 97% |

Same assay, conditions: compound plates 20 μL/well of 25 μg/mL compound in 2.5% DMSO; relative to DMSO negative and UDP-xylose positive controls; higher POC = more inhibitory; read-out: POC (Percent of Controls)

| Compound | inhibition at 25 µg/mL (stock) |
| --- | --- |
| CCN(CC)c1ccc(N)c(C)c1 | 46% |
| CCSc1sc(SC#N)cc1SC#N | 83% |
| CC(C)N(CCC#N)S(=O)(=O)c1ccccc1[N+](=O)[O-] | 81% |
| CCc1ccc(NC(Nc2ccc(CC)cc2)=C(S(=O)(=O)CC)S(=O)(=O)CC)cc1 | 47% |
| N#CSC(C#N)Cc1ccc([N+](=O)[O-])cc1 (centres unmarked) | 80% |
| N#CSC(C#N)Cc1cccc([N+](=O)[O-])c1 (centres unmarked) | 88% |
| Nc1ccc(Cc2ccc(N)c(O)c2)cc1O | 62% |
| CC1(C)CC(=O)C2=C(C1)OC(N)=C(C#N)C21CCCC1 | 126% |
| COc1ccc(NS(=O)(=O)c2cc(C(=O)Nc3ccc(C(=O)O)cc3)ccc2C)cc1 | 61% |
| COc1ccc(-c2nnc(N)o2)cc1 | 86% |
| CCCCC(NC(=O)c1cccc(Br)c1)C(=O)O (centres unmarked) | 103% |
| CN(C)c1ccc(NC(=O)C2C3C=CC(C3)C2C(=O)O)cc1 (centres unmarked) | 56% |
| COc1ccc(-c2ccc(CCC(=O)O)o2)cc1 | 57% |
| CC(C)(C)C(=O)NCCNc1ccc([N+](=O)[O-])cc1 | 47% |
| Cc1ccc(-c2csc(N)c2C(N)=O)cc1C | 47% |
| O=C(Nc1nc2c(s1)CCCC2)c1cccs1 | 45% |
| O=C(O)COc1cccc(/C=C/[N+](=O)[O-])c1 | 67% |
| NC(=O)c1c(-c2cccs2)csc1N | 46% |

| Compound | inhibition at 25 µg/mL (stock) |
| --- | --- |
| CCc1cccc(NC(=O)NC2CCCCC2)c1 | 45% |
| COc1cc(-c2ccc(NC(=O)c3ccoc3C)c(OC)c2)ccc1NC(=O)c1ccoc1C | 45% |
| O=C(CN1CCCCC1)Nc1ccc(S(=O)(=O)N2CCOCC2)cc1 | 48% |
| O=c1oc2cc(Br)c(O)c(Br)c2s1 | 51% |
| O=C(O[C@@H]1Cc2c(O)cc(O)cc2O[C@@H]1c1cc(O)c(O)c(O)c1-c1c([C@H]2Oc3cc(O)cc(O)c3C[C@H]2OC(=O)c2cc(O)c(O)c(O)c2)cc(O)c(O)c1O)c1cc(O)c(O)c(O)c1 | 73% |
| O=C(O[C@@H]1Cc2c(O)cc(O)cc2O[C@@H]1c1cc(O)c(=O)c2c(O)c(O)cc([C@H]3Oc4cc(O)cc(O)c4C[C@H]3OC(=O)c3cc(O)c(O)c(O)c3)c2c1)c1cc(O)c(O)c(O)c1 | 59% |
| O=C(O[C@@H]1Cc2c(O)cc(O)cc2O[C@@H]1c1cc(O)c(O)c(O)c1-c1c([C@H]2Oc3cc(O)cc(O)c3C[C@H]2O)cc(O)c(O)c1O)c1cc(O)c(O)c(O)c1 | 83% |
| O=C(Oc1cc(O)cc2c1C[C@@H](OC(=O)c1cc(O)c(O)c(O)c1)[C@@H](c1cc(O)c(O)c(O)c1)O2)c1cc(O)c(O)c(O)c1 | 67% |
| O=c1c(O)cc([C@H]2Oc3cc(O)cc(O)c3C[C@H]2O)cc2c([C@H]3Oc4cc(O)cc(O)c4C[C@H]3O)cc(O)c(O)c12 | 83% |
| O=C(O[C@@H]1Cc2c(O)cc(O)cc2O[C@@H]1c1cc(O)c(O)c(O)c1)c1cc(O)c(O)c(O)c1 | 76% |
| O=C(O[C@@H]1Cc2c(O)cc(O)cc2O[C@@H]1c1cc(O)c(=O)c2c(O)c(O)cc([C@H]3Oc4cc(O)cc(O)c4C[C@H]3O)c2c1)c1cc(O)c(O)c(O)c1 | 76% |
| O=C(O)c1cc(O)c(O)c(O)c1 | 71% |
| CC(=O)Oc1cc(-c2coc3cc(OC(C)=O)c(OC(C)=O)c(OC(C)=O)c3c2=O)cc(OC(C)=O)c1OC(C)=O | 98% |
| O=c1c(-c2cc(O)c(O)c(O)c2)coc2cc(O)c(O)c(O)c12 | 98% |
| O=c1c(O)c(-c2cc(O)c(O)c(O)c2)oc2cc(O)cc(O)c12 | 91% |
| O=C(OC[C@H]1O[C@H](OC(=O)c2cc(O)c(O)c(OC(=O)c3cc(O)c(O)c(O)c3)c2)[C@H](OC(=O)c2cc(O)c(O)c(OC(=O)c3cc(O)c(O)c(O)c3)c2)[C@@H](OC(=O)c2cc(O)c(O)c(OC(=O)c3cc(O)c(O)c(O)c3)c2)[C@@H]1OC(=O)c1cc(O)c(O)c(OC(=O)c2cc(O)c(O)c(O)c2)c1)c1cc(O)c(O)c(OC(=O)c2cc(O)c(O)c(O)c2)c1 | 69% |
| CC(C)c1cc2c(c(O)c1O)[C@@]1(C(=O)O)CCCC(C)(C)C1CC2 (some centres unmarked) | 66% |

Further lines, results first:

| inhibition at 25 µg/mL (stock) | Compound |
| --- | --- |
| 106% | c1ccc(CNc2nc(-c3ccccc3)[n+](-c3ccccc3)s2)cc1 |
| 59% | N#CSC(C#N)Cc1ccccc1 (centres unmarked) |
| 74% | N#CSC(C#N)Cc1cccc(Cl)c1 (centres unmarked) |
| 148% | Cc1ccc(S(=O)(=O)Nc2cccc3ccc(-n4nc(C)cc4C)nc23)cc1 |
| 54% | N#Cc1ccc(Oc2ccc(C(=O)Nc3ccccc3)cc2)cc1 |
| 72% | Nc1ccccc1S(=O)(=O)Nc1cccc2cccnc12 |
| 50% | Nc1ccc(S(=O)(=O)c2ccc(N)c(N)c2)cc1N |
| 88% | Cc1cc(C)n(-c2ccc3cccc([N+](=O)[O-])c3n2)n1 |
| 46% | Nc1ccc(C(=O)c2ccc(N)c(N)c2)cc1N |
| 62% | O=C(Nc1ccc([N+](=O)[O-])cc1)c1ccc(Br)o1 |
| 65% | COc1cc(/C=C2\C(C)=C([N+](=O)[O-])CS2(=O)=O)ccc1O |
| 66% | CCOc1ccc(N/C(=N/N)c2ccc3ccccc3n2)cc1 |
| 46% | O=C(Cc1ccccc1)c1ccc(O)c(O)c1O |
| 57% | COc1ccc(-c2ccc(CCC(=O)O)n2-c2ccc(O)cc2)cc1 |
| 46% | Cc1[nH]nc(-c2ccc(O)c(O)c2O)c1Oc1ccccc1 |
| 62% | COc1ccc(-c2ccc(CCC(=O)O)[nH]2)cc1 |

| inhibition at 25 µg/mL (stock) | Compound |
| --- | --- |
| 82% | Cc1ccc(-c2ccc(CCC(=O)O)o2)cc1 |
| 49% | O=C1CC(Sc2ccccn2)C(=O)N1c1cccc(Cl)c1Cl (centres unmarked) |
| 57% | O=[N+]([O-])c1ccc(SCc2ccco2)c2cccnc12 |
| 51% | COCCN1C(=O)C(O)=C(C(=O)c2ccc(OC)c(C)c2)C1c1ccncc1 (centres unmarked) |
| 46% | Cc1cc(O)ccc1NC(=O)c1ccccc1 |
| 58% | C[n+]1sc(Nc2ccccc2)nc1-c1ccccc1 |
| 47% | O=C(Nc1ccc2nc(-c3ccco3)c(-c3ccco3)nc2c1)N1CCOCC1 |
| 85% | Cc1ccc(OCCn2ccnc2)cc1 |
| 68% | COc1ccc(OC)c(N2C(=O)CC(Sc3nc4ccccc4s3)C2=O)c1 (centres unmarked) |
| 47% | Cc1nnc(SC2CC(=O)N(c3ccc(Br)cc3)C2=O)s1 (centres unmarked) |
| 58% | Cc1nnc(SC2CC(=O)N(c3ccc(Oc4ccccc4)cc3)C2=O)s1 (centres unmarked) |
| 50% | CCC(=O)Nc1ccc(C(=O)Nc2ccc(Cl)cc2C(=O)O)cc1 |
| 73% | COC(=O)Oc1c(Cl)cc2oc(=O)sc2c1[N+](=O)[O-] |
| 73% | O=c1c(O)cccc2ccc(O)c(O)c12 |
| 53% | O=c1c(O)cccc2c([C@H]3Oc4cc(O)cc(O)c4C[C@H]3O)cc(O)c(O)c12 |
| 96% | O=C1c2ccc(O)cc2O[C@H](c2cc(O)c(O)c(O)c2)[C@H]1O |
